According to patent EP0717040A1, “Thiazine or thiazepine derivatives which inhibit NOS” (Japan Tobacco Inc., priority 1994, dated 1996):
Structures can show the parent of a compound that is named as a salt. Where two headings read alike, the source gives them in different places.

Experiments:
[1] = target: T1, endothelium nitric oxide synthase (eNOS) (Rattus norvegicus, UniProt Q62600); test: Blood pressure elevating activity in rat by inhibition of eNOS; format: in vivo; details: dose to elevate mean blood pressure by 25 mmHg; anesthetized rat, administered via femoral vein
T1 construct: from tissue; host or cells: living anesthetized rat
Protocol: Blood pressure elevating activity in rat by inhibition of endothelium nitric oxide synthase (eNOS) A rat was anesthetized with by peritoneal injection of sodium barbital (300 mg/kg) and catheters were inserted into a femoral artery and a femoral vein. Blood pressure was measured through the catheter inserted in the femoral artery and a test compound was administered through the catheter inserted in the femoral vein. […]

[2] = target: T2, inducible NO synthase (iNOS) (Rattus norvegicus, UniProt Q06518); test: Effect on rat-paw carrageenin edema model by inhibition of iNOS; format: in vivo; details: oral, 1 hour prior to carrageenin, paw volume 4 hours after induction; for ED50: rat, read-out: Suppression Effect (ED₅₀)
Protocol: Effect on rat-paw carrageenin edema model by inhibition of inducible NO synthase (iNOS)
To a rat's left leg, 1 % carrageenin solution was subcutaneously administered to induce a paw edema. 4 hours after the induction, paw volume was measured. A test compound was orally administered 1 hour prior to the carrageenin administration. The suppression effect of the test compound was determined.

neuronal NOS (nNOS) [3] = target: T3, neuronal NOS (nNOS) (Rattus norvegicus, UniProt P29476); test: Effect on rat cerebral ischemia model by inhibition of nNOS: reperfusion model; format: in vivo; details: 10 minutes before occlusion, immediately before and 3 hours after reperfusion, infarct area after 48 hours
T3 construct: from tissue; host or cells: living rat (brain)
From the text: Effect on rat cerebral ischemia model by inhibition of neuronal NOS (nNOS): reperfusion model
A rat (weight: 300 g) was fasted overnight and a middle cerebral artery of the rat was occluded and then reperfused to prepare a cerebral ischemia model, according to the method of Koizumi et al. (Jpn. J. Stroke, 8, 1-8 (1986)). More specifically, a rat breathing naturally was immobilized under anesthesia with a laughing gas - oxygen mixed gas and halothane, and then, underwent cervical median dissection. A silicon-coated nylon thread was inserted into an internal carotid artery from a branched portion at which a right external carotid artery and the internal carotid artery is divided, thereby blocking the middle cerebral artery for 1.5 hours. Thereafter, the occluding of the middle cerebral artery was reperfused by removing a thread. After 48 hours, 6 coronal sections were prepared and stained by means of a triphenyltetrazolium chloride method. Non-stained portions were determined as infarct area. The test compound was intravenously injected 10 minutes before the occlusion of middle cerebral artery, immediately before, and 3 hours after reperfusion. The inhibitory effect of each compound was determined.

[4] = target: T4, constitutive NO synthase (cNOS) (Rattus norvegicus, UniProt P29476); test: Activity to inhibit constitutive NO synthase (cNOS) derived from rat cerebellum; conversion of [3H]-L-arginine to [3H]-L-citrulline; format: biochemical
T4 construct: cNOS was extracted from a rat cerebellum; from tissue; host or cells: rat cerebellum
Protocol: Activity to inhibit constitutive NO synthase (cNOS) derived from rat cerebellum
The inhibition activity was tested according to a method of P. A. Bush et al. (Biochem, Biophys, Res. Commun., 185, 960-966 (1992)), using [³H]-L-arginine as a substrate and taking the conversion of [³H]-L-arginine to [³H]-L-citrulline as an index of the enzyme activity.
The test was conducted as follows: First, cNOS was extracted from a rat cerebellum with a 50 mM Tris-HCl buffer solution (pH 7.4) which contains 0.1 mM EDTA (ethylenediamine tetraacetate), 0.1 mM EGTA (ethyleneglycol bis(β-aminoethyl ether)-tetraacetate), 0.5 mM DTT (dithiothreitol), 1 µM PMSF (phenylmethylsulfonyl fluoride), 1 µM bestatin A, and 1 µM leupeptin. To the cNOS thus extracted, a 50 mM Tris-HCl buffer solution (pH 7.4) containing 10 µM L-arginine, 10 µM NADPH, 2 mM calcium chloride and calmoduline (0.1 µg), together with a test compound and [³H]-L-arginine were added. The mixture was incubated for 10 minutes at 25°C. The reaction was terminated by adding 20 mM sodium acetate buffer solution (pH 5.5) containing 1 mM L-citrulline, 2 mM EDTA, and 0.2 mM EGTA. The reaction solution was passed through a cation-exchange resin. This eluate was combined with another eluate which was obtained thereafter by eluting with water. To the combined eluate, a liquid scintillation cocktail was further added and its radioactivity (A) was measured. At the same time, the radioactivity (B) with respect to the case where the test compound was not added and the radioactivity (C) with respect to the case where an enzyme fraction was not added, were respectively measured. Then, the rate of cNOS inhibition was calculated in accordance with the following equation. The concentration (IC₅₀), at which the test compound can inhibit 50 % of the enzyme activity, were also calculated. Inhibition rate (%) = {1 - (A - C/B - C)} × 100 [formula]

[5] = target: T2, inducible NO synthase (iNOS); test: Activity to inhibit inducible NO synthase (iNOS) derived from rat macrophages; conversion of [3H]-L-arginine to [3H]-L-citrulline; format: biochemical; set-up: iNOS was extracted from the macrophages which have been treated with lipopolysaccharide and interferon-γ; endogenous in cells; host or cells: rat peritoneal macrophages treated with lipopolysaccharide and interferon-γ
Protocol: Activity to inhibit inducible NO synthase (iNOS) derived from rat macrophages
According to partly modified method of Y. Yui et al.(J. Biol. Chem., 266 (19), 12544-12547 (1991)), an iNOS fraction was prepared by applying lipopolysaccharide and interferon-γ to peritoneal macrophages. Thereafter, its enzymatic activity was measured based on the conversion of [³H]-L-arginine to [³H]-L-citrulline, in the same manner as in the case of cNOS.
To the iNOS thus extracted, a 50 mM Tris-HCl buffer solution (pH 7.4) containing 150 µM L-arginine, 5 mM NADPH, 5 mM DTT, 0.5 mM 5,6,7,8-tetrahydro-L-biopterin and 5 µM FAD was added together with a test compound and [³H]-L-arginine. The mixture was incubated for 30 minutes at 37°C. Thereafter, the reaction was terminated by adding a 25 mM sodium acetate buffer solution (pH 5.5) containing 1.25 mM L-citrulline, 2.5 mM EDTA and 0.25 mM EGTA. The reaction solution was passed through a cation-exchange resin. The obtained eluate was combined with the additional eluate obtained thereafter by eluting with water, and the radioactivity of the combined eluate was measured. The inhibition rate of the test compound on iNOS was calculated in the same manner as in Test 1. The concentration (IC₅₀) of the test compound required for inhibiting 50 % of the enzyme activity, were calculated.

neuronal NOS (nNOS) [6] = target: T3, neuronal NOS (nNOS); test: Effect on rat cerebral ischemia model by nNOS inhibition: permanent occlusion model; format: in vivo; details: dose 10µg/kg+1µg/kg/min; intravenous 5 minutes after occlusion, then infused for 6 hours; cerebral infarct area after 24 hours
From the text: Effect on rat cerebral ischemia model by neuronal NOS (nNOS) inhibition: permanent occlusion model According to a partly modified method of Tamura et al. (J. Cereb. Blood Flow Matab., 1, 53-60 (1981)), an cerebral ischemia model was established by permanently blocking a rat middle cerebral artery. That is, a rat was anesthetized with laughing gas - oxygen and halothane, and then, a hole was formed at a cranial bone in the periphery of oval foramen, thereby exposing the middle cerebral artery. Subsequently, a middle cerebral artery was clipped and coagulated, thereby established a permanent occlusion model. After 24 hours, a brain was excised out and cerebral infarct area were determined by use of triphenyltetrazolium chloride. A test compound was injected intravenously 5 minutes after the occlusion and subsequently infused for 6 hours. The suppression effect was investigated.

[7] = cNOS extracted from rat cerebellum, 10 µM L-arginine, 10 minutes at 25°C, read-out: IC₅₀
[8] = iNOS from peritoneal macrophages treated with lipopolysaccharide and interferon-γ, 150 µM L-arginine, 30 minutes at 37°C, read-out: IC₅₀

| SMILES | ED₂₅ [1] [mg/kg] | Suppression Effect [2] | ED50 [2] [mg/kg] | Inhibitory Effect (neuronal NOS (nNOS) [3]; dose 10 µg/kg intravenously) | IC50 [4] [µM] | IC50 [5] [µM] | Inhibitory Effect (neuronal NOS (nNOS) [3]; dose 3 µg/kg intravenously) | IC50 [4, 7] [µM] | IC50 [5, 8] [µM] | Suppression Effect (neuronal NOS (nNOS) [6]) |
| --- | --- | --- | --- | --- | --- | --- | --- | --- | --- | --- |
| Br.CCC[C@@H]1CCSC(N)=N1 [Example 3, (R)-2-amino-5,6-dihydro-4-propyl-4H-1,3-thiazine hydrobromide] | 0.2 | ○ | 9 | ○ (10) | – | – | – | – | – | – |
| CCOC1CCSC(N)=N1 (stereo not shown) [Example 21, Bis(2-amino-4-ethoxy-5,6-dihydro-4H-1,3-thiazine) fumarate] | 0.06 | ○ | 0.5 | – | 0.02 | 0.03 | ○ (3) | – | – | – |
| CC1CN=C(N)SC1 (stereo not shown) [Example 28, 2-amino-5,6-dihyro-5-methyl-4H-1,3-thiazine hydrobromide] | – | – | – | – | 0.1 | 0.2 | – | – | – | – |
| CC1(C)CCN=C(N)S1 [Example 29, 2-amino-5,6-dihydro-6,6-dimethyl-4H-1,3-thiazine hydrochloride] | – | – | – | – | – | – | – | 0.1 | 0.2 | – |
| Br.COC[C@@H]1CCSC(N)=N1 [Example 30, (S)-2-amino-5,6-dihydro-4-methoxymethyl-4H-1,3-thiazine hydrobromide] | 0.15 | – | – | ○ (10) | – | – | – | 0.03 | 0.02 | – |
| CCC[C@@H]1CCSC(N)=N1.Cl [Example 31, (R)-2-amino-5,6-dihydro-4-propyl-4H-1,3-thiazine hydrochloride] | 0.46 | – | – | – | – | – | – | 0.02 | 0.01 | ○ (10µg/kg+1µg/kg/min) |
